# Source: the OPERA property sets (Mansouri et al. 2018)
# Conditions: for log10 BCF / log10 biotransformation half-life (days): fish
smiles,measurement,value
O=S(=O)(O)CCCNC1CCCCC1,melting point,302 °C
N#CCc1ccc([N+](=O)[O-])cc1,melting point,117 °C
CCc1ccccn1,boiling point,149 °C
same,log10 Henry constant (atm·m³/mol),-4.78
same,log10 vapour pressure (mmHg),0.689
same,melting point,-63.1 °C
CC[N+](CC)(CCOc1ccc(C(C)(C)CC(C)(C)C)cc1)Cc1ccccc1.[Cl-],melting point,113 °C
OC[C@@H](O)[C@@H](O)[C@H](O)[C@@H](O)CO,ready biodegradability,readily biodegradable
CCCCCCCCCCCCCCCBr,boiling point,322 °C
same,log10 vapour pressure (mmHg),-3.83
same,melting point,19 °C
C/C=C/Cl,boiling point,35.2 °C
same,log10 vapour pressure (mmHg),2.71
same,melting point,-117 °C
O=C1c2ccc(O)c(O)c2C(=O)c2ccc(O)c(O)c21,melting point,340 °C
Cc1cccc(C(=O)O)c1S(=O)(=O)NC(=O)Nc1nc(OCC(F)(F)F)nc(N(C)C)n1,melting point,162 °C
C=CCC(C)C(C)C (stereo not drawn),boiling point,109 °C
CC1CS1 (stereo not drawn),boiling point,72.5 °C
same,melting point,-91 °C
FC(F)=C(Cl)C(F)(F)F,boiling point,6.8 °C
same,melting point,-130 °C
Nc1c(Oc2ccc(Br)cc2)cc(O)c2c1C(=O)c1ccccc1C2=O,ready biodegradability,not readily biodegradable
same,log10 BCF,2.05
Oc1ccc(S)cc1,melting point,29.5 °C
CC(C)(C)C(C)(C)Cl,melting point,136 °C
Oc1ccc(/C=C/c2cc(O)cc(O)c2)cc1,melting point,254 °C
Cc1cc(-c2ccc(N=C=O)c(C)c2)ccc1N=C=O,melting point,71 °C
O=[N+]([O-])c1ccc(N=Nc2ccc(O)cc2O)cc1,melting point,200 °C
NC(=O)C(Cl)Cl,boiling point,234 °C
same,melting point,99.4 °C
CC(O)Cn1c(=O)c2c(ncn2C)n(C)c1=O (stereo not drawn),melting point,141 °C
CCOC(=O)N1C(=O)c2ccccc2C1=O,melting point,91 °C
O=[N+]([O-])c1cccc2c([N+](=O)[O-])cccc12,melting point,219 °C
same,ready biodegradability,not readily biodegradable
CCc1ccc(C)cc1,boiling point,162 °C
same,log10 biodegradation half-life (days),0.602
same,log10 vapour pressure (mmHg),0.477
same,melting point,-62.3 °C
COc1ccc(OC)cc1,boiling point,213 °C
same,melting point,59 °C
same,ready biodegradability,readily biodegradable
Cc1ccc(C(=O)c2ccccc2C(=O)O)cc1,melting point,146 °C
O=c1[nH]cc(F)c(=O)[nH]1,melting point,283 °C
COc1cc(C=CC(=O)O)ccc1O,ready biodegradability,readily biodegradable
Cc1cccc2c1CCC2,boiling point,205 °C
same,log10 biodegradation half-life (days),0.301
OCCOc1ccc(N=Nc2ccccc2)cc1,log10 vapour pressure (mmHg),-7.67
CC(F)(Cl)CCl (stereo not drawn),boiling point,88.6 °C
same,melting point,-91.7 °C
C[C@@H]1C=Cc2ccccc21,boiling point,199 °C
CCCNC(=O)NS(=O)(=O)c1ccc(Cl)cc1,melting point,128 °C
O=C1c2ccccc2C(=O)c2c1ccc1ccccc21,melting point,170 °C
same,ready biodegradability,not readily biodegradable
same,log10 BCF,1.69
same,log10 biotransformation half-life (days),-0.84
O=[N+]([O-])c1ccc(O)cc1C(F)(F)F,log10 Koc (L/kg),2.11
same,melting point,76 °C
CCCCCCOC,boiling point,126 °C
CC(C)(C#N)N=NC(C)(C)C#N,ready biodegradability,not readily biodegradable
Cc1cccc(N)n1,boiling point,208 °C
same,melting point,41 °C
O=C(O)CCCCCCCCC(=O)O,log10 vapour pressure (mmHg),-7.26
same,melting point,131 °C
same,ready biodegradability,readily biodegradable
CCCCOC(=O)c1ccccc1C(=O)OCc1ccccc1,boiling point,370 °C
same,log10 Koc (L/kg),3.72
same,log10 vapour pressure (mmHg),-5.08
same,ready biodegradability,readily biodegradable
same,log10 BCF,1.21
same,log10 biotransformation half-life (days),-1.03
N#C[S-].[K+],melting point,173 °C
CC1=CC[C@@H]2[C@H]3[C@@H](C(C)C)CC[C@]2(C)[C@@H]13,boiling point,248 °C
Clc1ccc2c(c1)Oc1cc(Cl)ccc1O2,log10 vapour pressure (mmHg),-5.98
same,melting point,151 °C
ClCC(Cl)(CCl)CCl,boiling point,211 °C
Oc1c(Cl)cc(Cl)c2ccccc12,melting point,108 °C
same,ready biodegradability,not readily biodegradable
same,log10 BCF,1.35
CC1(C)CC=CCC1,boiling point,117 °C
same,melting point,-74.4 °C
CCC[C@@H](O)CC,boiling point,135 °C
same,log10 vapour pressure (mmHg),0.682
CCCCCC(C)C(C)C (stereo not drawn),boiling point,164 °C
CN1CCC(CCCC2CCN(C)CC2)CC1,melting point,13.7 °C
CCOc1ccc(Cl)cc1,boiling point,213 °C
same,melting point,21 °C
CC(=O)OOC(C)=O,melting point,30 °C
C1COCCN1,boiling point,128 °C
same,log10 vapour pressure (mmHg),1
same,melting point,-4.9 °C
same,ready biodegradability,not readily biodegradable
same,log10 BCF,0.45
CC(C)=C(C)C,boiling point,73.3 °C
same,log10 vapour pressure (mmHg),2.1
same,melting point,-74.6 °C
CCOC(=O)CCC(C)CC (stereo not drawn),boiling point,180 °C
Brc1ccc(-c2ccc(Br)cc2)cc1,boiling point,358 °C
same,melting point,164 °C
same,ready biodegradability,not readily biodegradable
same,log10 BCF,3.92
same,log10 biotransformation half-life (days),1.57
CN1CCc2cc3c(cc2C(=O)Cc2ccc4c(c2C1)OCO4)OCO3,melting point,208 °C
C=CC(CC)CC,boiling point,84.1 °C
same,log10 vapour pressure (mmHg),1.91
same,melting point,-128 °C
FC(Br)(Br)Br,boiling point,108 °C
same,melting point,-73.6 °C
Clc1ccc(-c2c(Cl)cc(Cl)cc2Cl)cc1,melting point,65 °C
CCN(CC)c1ccc2c(-c3ccccc3C(=O)O)c3ccc(N(CC)CC)cc3[o+]c2c1,log10 BCF,0.23
O=C(CBr)c1ccccc1,melting point,50.5 °C
O=C(O)CCOc1ccccc1,boiling point,240 °C
same,melting point,97.5 °C
c1ccc(CCCCc2ccccc2)cc1,boiling point,317 °C
same,melting point,52.5 °C
CCCC(C)C(=O)Nc1ccc(C)c(Cl)c1 (stereo not drawn),log10 Koc (L/kg),2.76
same,melting point,85 °C
CCNCc1ccccc1,boiling point,194 °C
CCOC(=O)N(c1ccccc1)c1ccccc1,boiling point,360 °C
same,melting point,72 °C
O=C(OCC(=O)N1CCOCC1)c1ccccc1,melting point,104 °C
C=Cc1cccc(Cl)c1,log10 vapour pressure (mmHg),-0.0083
same,ready biodegradability,not readily biodegradable
CCCCC(C)CCCC(C)C (stereo not drawn),log10 biotransformation half-life (days),0.32
N#Cc1ccc(-c2ccc(C#N)cc2)cc1,melting point,238 °C
Clc1ccc2ccc(Cl)c(Cl)c2c1Cl,log10 Koa,8.65
CC(C)(C)OC(=O)C1(S(=O)(=O)c2ccc(Cl)cc2)CC1,melting point,110 °C
CCCN(CCC)c1c([N+](=O)[O-])cc(S(C)(=O)=O)cc1[N+](=O)[O-],log10 Koc (L/kg),2.92
same,log10 vapour pressure (mmHg),-8.03
same,melting point,150 °C
same,ready biodegradability,not readily biodegradable
CC(C)C(C)(C)O,boiling point,118 °C
same,log10 vapour pressure (mmHg),0.505
same,melting point,-14 °C
CC(=O)Oc1c(C)cc(OCC(O)CNC(C)C)c(C)c1C (stereo not drawn),melting point,106 °C
Clc1cccc2c(Cl)cccc12,log10 Koa,6.65
same,melting point,107 °C
O=C(OC1CCCCC1)c1ccccc1C(=O)OC1CCCCC1,log10 vapour pressure (mmHg),-6.06
same,melting point,66 °C
same,ready biodegradability,readily biodegradable
CCCCC1CCCC1,boiling point,157 °C
same,log10 vapour pressure (mmHg),0.602
same,melting point,-108 °C
CNC(=O)ON=C(C)SC,log10 Koc (L/kg),1.3
same,log10 vapour pressure (mmHg),-5.27
same,melting point,78 °C
O=C1CCc2cc(OCCCCc3nnnn3C3CCCCC3)ccc2N1,melting point,160 °C
Nc1ccc(Cc2ccc(N)cc2)cc1,boiling point,398 °C
same,log10 Koc (L/kg),1.99
same,melting point,92.5 °C
same,ready biodegradability,not readily biodegradable
same,log10 BCF,1.18
Nc1ccc2c(c1)Cc1cc(N)ccc1-2,melting point,166 °C
CCN(CCO)c1ccc(N=Nc2ccc([N+](=O)[O-])cc2)cc1,log10 vapour pressure (mmHg),-13.4
same,melting point,161 °C
CCCCC(C)CCCC,boiling point,165 °C
same,melting point,-87.7 °C
Cc1ccc2nccc(C)c2c1,boiling point,274 °C
same,melting point,22 °C
[N-]=[N+]=Nc1ccccc1,melting point,-27.5 °C
CCOc1ccccc1C=O,boiling point,248 °C
same,melting point,21 °C
CC(=O)[C@H]1CC[C@H]2[C@@H]3CC[C@H]4C[C@H](N)CC[C@]4(C)[C@H]3CC[C@]12C,melting point,126 °C
O=C1c2ccccc2C(=O)C1c1ccc(F)cc1,melting point,120 °C
CC(C)OC=O,boiling point,68.2 °C
same,log10 vapour pressure (mmHg),2.14
same,melting point,-80 °C
Cl[C@@H]1CCCC[C@H]1Cl,boiling point,200 °C
same,melting point,-1.5 °C
O=C(O)Cc1ccccc1F,melting point,63 °C
CCC1(CCC(C)C)C(=O)NC(=O)NC1=O,melting point,157 °C
OC1c2ccccc2Oc2ccccc21,melting point,128 °C
CCCCCCCCCCCCCCCCCBr,boiling point,349 °C
same,log10 vapour pressure (mmHg),-4.74
same,melting point,32 °C
Oc1c(Cl)cc(Cl)cc1Cl,log10 Koc (L/kg),3.03
same,ready biodegradability,readily biodegradable
same,log10 BCF,1.94
same,log10 biotransformation half-life (days),-0.57
O=C(CCl)c1ccc(Cl)cc1,boiling point,270 °C
same,melting point,102 °C
O[Si](c1ccccc1)(c1ccccc1)c1ccccc1,melting point,155 °C
same,log10 biotransformation half-life (days),0.07
CCOP(=S)(Oc1ccc([N+](=O)[O-])cc1)c1ccccc1 (stereo not drawn),log10 Koc (L/kg),3.12
same,log10 vapour pressure (mmHg),-6.02
same,melting point,36 °C
same,ready biodegradability,not readily biodegradable
same,log10 BCF,2.97
C1C2CC3C4CC5CC(C14)C(C2)C3C5,log10 biodegradation half-life (days),3.3
CCc1ssc(=O)c1-c1ccccc1,melting point,82 °C
COc1ccccn1,boiling point,142 °C
CC(C)[C@@H]1CCCCC1=O,melting point,72.5 °C
COc1cc(Cc2cnc(N)nc2N)cc(OC)c1OC,melting point,201 °C
CCN(C)CC,boiling point,66 °C
same,melting point,-196 °C
C=Cn1c2ccccc2c2ccccc21,melting point,65 °C
CSc1nnc(C(C)(C)C)c(=O)n1N,log10 Koc (L/kg),1.71
same,log10 vapour pressure (mmHg),-6.36
same,melting point,126 °C
c1ccc2c(c1)cc1c3ccccc3c3cccc4ccc2c1c43,melting point,234 °C
O=C(O)CC=Cc1ccccc1,boiling point,302 °C
same,melting point,87 °C
C=CC(=C)C,boiling point,34 °C
same,log10 Koa,2.06
same,log10 vapour pressure (mmHg),2.74
same,melting point,-146 °C
same,ready biodegradability,not readily biodegradable
same,log10 BCF,1.3
same,log10 biotransformation half-life (days),-0.61
CCCCCCCCCCCCCCCCCC(=O)OC(C)C,log10 vapour pressure (mmHg),-4.4
same,melting point,28 °C
CCC(=O)c1ccc(O)cc1O,melting point,99 °C
Oc1ccc(Cl)c2c1CCC2,melting point,92 °C
COc1cc(O)cc(OC)c1,melting point,37 °C
Cc1cc[nH]n1,boiling point,204 °C
same,melting point,36.5 °C
CCOC(=O)C(C(C)=O)C(C)=O,boiling point,210 °C
Oc1ccc(O)cc1,boiling point,287 °C
same,log10 vapour pressure (mmHg),-4.62
same,melting point,172 °C
same,ready biodegradability,readily biodegradable
COC(=O)c1ccc(OC)cc1,boiling point,256 °C
same,melting point,49 °C
OC(c1ccccc1)c1ccc(Cl)cc1 (stereo not drawn),melting point,60.8 °C
same,log10 BCF,1.79
same,log10 biotransformation half-life (days),-0.89
COC1=CC=C2[C@H]3Cc4ccc(OC)c5c4[C@@]2(CCN3C)[C@H]1O5,melting point,193 °C
[N-]=[N+]=Nc1ccc(Cl)cc1,melting point,20 °C
CC(C)NC(=N)NC(=N)Nc1ccc(Cl)cc1,melting point,129 °C
